The subject of data set [1] is mutant tau (HT7), p35, cdk5, Hsp70. Nature of the data set: One dose PU-DZ8 in JNPL3 mice, S1 and P3 brain fractions by Western blot. The note with it: for soluble mutant tau (HT7), S1 fraction, subcortical brain region: from 4 h, maintained up to 36 h. The class given is in vivo, mouse. The method, then: JNPL3 female mice 6 months of age were treated IP with the Hsp90 inhibitor PU-DZ8 (75 mg/kg) and sacrificed various times as indicated in FIG. 9. Brains were divided in subcortical and cortical regions and processed using the Greenberg and Davies extraction protocol (77). Sarkosyl soluble fractions (S1) extracted from the subcortical region were analyzed by WB for p35, cdk5, mutant tau (HT7), Hsp90 and Hsp70. Protein bands were normalized to actin and plotted as relative change from untreated mice.
To investigate whether the human TauP301L present in the JNPL3 line of mice is a sensitive target for Hsp90 inhibition, animals were treated with the brain-barrier permeable Hsp90 inhibitor PU-DZ8. This agent is a higher-potency water soluble derivative of PU24FC1 (EC50JNPL3 brain Hsp90=70 nM). One dose of PU-DZ8 (75 mg/kg) was administered intraperitoneally (i.p.) to female mice of 2.5-4 months in age (n=32) and animals were sacrificed in the interval of 0 to 36 h. Both aggregate-free Tau (S1) and insoluble Tau (P3) fractions were prepared from the subcortical and cortical regions of these mice. Human Tau levels were assessed by immunobloting with a human specific anti-Tau antibody (HT-7). […] We next examined in a 4- to 6-month old mouse group (n=15) whether the stability of mTau as present in tau aggregates (P3 fraction) was additionally regulated by Hsp90.
For experiments designed to test the kinetics of mTau and p35 modulation by Hsp90 inhibitors, animals were administered intraperitoneally (i.p.) 75 mg/kg PU-DZ8 in PBS (6% DMSO). Mice were sacrificed by CO2 euthanasia at the indicated times following PU-DZ8 administration. Hemibrains were separated into cortico-limbic (cortex, amygdale and hippocampus) and subcortical (basal ganglia, diencephalon, brain stem and cerebellum) regions, quickly frozen on dry ice and stored at −80° C. and processed. In summary, each brain piece was weighed and homogenized in three volumes of Tris-buffered saline (TBS) containing protease and phosphatase inhibitors (25 mM Tris-HCl, pH 7.4, 150 mM NaCl, 1 mM EDTA, 1 mM EGTA, 5 mM sodium pyrophosphate, 30 mM β-glycerophosphate, 30 mM sodium fluoride, 1 mM phenylmethylsulfonyl fluoride (PMSF)). The homogenates were centrifuged at 27,000 g for 15 min at 4° C. Supernatants were collected as S1 fractions, and the pellets (P1) were re-homogenized in three volumes of salt/sucrose buffer (0.8 M NaCl, 10% sucrose, 10 mM Tris/HCl, pH 7.4, 1 mM EGTA, 1 mM PMSF) and centrifuged as above. The resulting pellets were discarded and the supernatants were incubated with sarkosyl (Sigma, St Louis, Mo., USA; 1% final concentration) for 1 h at 37° C. The sarkosyl mixtures were then centrifuged at 150,000 g for 30 min at 4° C. The supernatants (S2 fraction) were collected, and the pellets (P3) were resuspended in 50 μL 2% SDS in TBS and stored at −80° C. for western blotting. Proteins were analyzed by Western blot.
On the technique in general: A western blot detects proteins with antibodies after separation by electrophoresis.

Data set [2] concerns mTau expression and phosphorylation, p35. Nature of the data set: 30 day Hsp90 inhibitor treatment of JNPL3 mice. In kind it is in vivo. The note with it: 30 days. How it is done:
JNPL3 female mice 6.5 months of age were treated for 30 days, 5 day/week, with the Hsp90 inhibitor PU-DZ8 (FIG. 5) or vehicle, or sacrificed for time zero, n=4/group. Brains were divided in subcortical and cortical regions and processed using the Greenberg and Davies extraction protocol. (77) Sarkosyl soluble fractions (S1) were analyzed by WB for p35 and Hsp70, and for tau epitopes found abnormally hyperphosphorylated in AD brains such as: 5202 and T205 recognized by ATB, T181 by AT270, T231 by AT180. These are putative cdk5/p35 sites. Protein bands were normalized to Hsp90 and plotted as relative units. […].
To investigate whether modulation of mTau could be sustained over a longer Hsp90 inhibitor-treatment period, without being toxic to mice, JNPL3 mice were subjected for 30 days to these agents. Female JNPL3 mice 6.5 months of age (n=10) were administered i.p. vehicle (n=5) or one of the Hsp90 inhibitors, PU24FC1 (200 mg/kg) or PU-DZ8 (75 mg/kg) (n=5), on a daily, five-times per week schedule and animals were sacrificed at 8 h following the last administered dose of inhibitor. […] Furthermore, no visible internal organ damage was detected at sacrifice upon gross inspection. Both S1 and P3 fractions extracted from the subcortical brain region of these mice were analyzed for mTau expression and phosphorylation.

For data set [3] the following is noted: cited from earlier work.

Each structure is given as a SMILES string.

Turning to `CC(C)NCCCn1c(Cc2cc3c(cc2I)OCO3)nc2c(N)nc(F)nc21` [PU-DZ8], the “chaperone levels (hsp70)” value in data set [1] (one dose 75 mg/kg IP) is “hsp70 increase”. For the same compound, in data set [1] (one dose 75 mg/kg i.p.), the cdk5 expression result is “No significant changes”; the “expressions of Akt and Raf-1” value is on record as “not altered”; the “soluble mutant tau (HT7), S1 fraction, subcortical brain region” value was “significant decrease”. Further, the “insoluble and hyperphosphorylated Tau (P3 fraction)” value in data set [1] (one dose 75 mg/kg i.p., 4- to 6-month old mice) is reported as “significant reduction”. Besides, in data set [1] (one dose 75 mg/kg i.p., listed as DZ8), the “soluble mutant tau (HT7), S1 fraction, subcortical brain region” value was “degradation of the mutant protein”. The “toxicity (animal weight, fur appearance, appetite, posture)” value in data set [2] (five-times per week i.p., PU24FC1 200 mg/kg or PU-DZ8 75 mg/kg) is “No toxicity was observed”. Besides, in data set [2] (subcortical brain region), the “Tau expression and phosphorylation in S1 and P3 fractions” value was “significant reduction in Tau expression and phosphorylation”; the “p35 in S1 fraction” value is given as “p35 reduction”. In addition, the solubility entry in data set [3] is reported as “water soluble”.

Values taken from US10336757B2, “Treatment of neurodegenerative diseases through inhibition of HSP90” (Sloan-Kettering Institute for Cancer Research, priority 2006, dated 2019).
